Experimental data: patent US20150374676A1, “HELICASE-PRIMASE INHIBITORS FOR USE IN A METHOD OF TREATING ALZHEIMER'S DISEASE” (AICURIS GMBH & CO. KG, priority 2013, published 2015)

What was measured:
HSV-1 [1] = assay: HSV-1 infected Vero cells, immunocytochemistry for HSV-1 proteins, Aβ and P-tau; assay type: cell-based, herpes simplex virus type 1; conditions: MOI 0.01 pfu/cell, 24 h; for staining for Aβ / staining for P-tau: 0.025-25 μM
Protocol: Vero cells were infected with HSV-1 at 0.01 plaque forming units (pfu) per cell [pfu/cell] for 24 hours and treated with varying concentrations of ACV and/or the exemplary compound according to Formula (I). Subsequently, cells were fixed and examined for HSV-1 proteins (A), Aβ(B) and P-tau (C) by immunocytochemistry. 1=vehicle; 2-5=increasing concentrations of the exemplary compound according to Formula (I) [0.025, 0.25, 2.5, 25 μM]; 6-9=increasing concentrations of acyclovir [0.025, 0.25, 2.5, 25 μM].
(§1) The inventors have compared the efficacy of the exemplary compound according to Formula (I) with that of ACV in respect to Aβ and P-tau accumulation in HSV-1 infected cells. African green monkey kidney (Vero) cells or human neuroblastoma (SH-SY5Y) cells were infected with HSV-1 at a multiplicity of infection (MOI) of 0.01 plaque forming units (pfu) per cell [pfu/cell] for 24 hours and were treated with the exemplary compound according to Formula (I), or ACV. The antiviral agents were added at the time of infection and remained throughout the infection. Infection led to typical cytopathic effects (clustering of infected cells positive for HSV-1 protein staining (FIGS. 1A and 2 A, panel 1)).

HSV-1 [2] = assay: HSV-1 infected SH-SY5Y cells, immunocytochemistry for HSV-1 proteins, Aβ and P-tau; assay type: cell-based, herpes simplex virus type 1; conditions: MOI 0.01 pfu/cell, 24 h; for staining for Aβ / staining for P-tau: 0.025-25 μM
Protocol: SH-SY5Y cells were infected with HSV-1 at 0.01 plaque forming units (pfu) per cell [pfu/cell] for 24 hours and treated with varying concentrations of ACV and/or the exemplary compound according to Formula (I). Subsequently, cells were fixed and examined for HSV-1 proteins (A), Aβ (B) and P-tau (C) by immunocytochemistry. 1=vehicle; 2-5=increasing concentrations of the exemplary compound according to Formula (I) [0.025, 0.25, 2.5, 25 μM]; 6-9=increasing concentrations of acyclovir [0.025, 0.25, 2.5, 25 μM].
as §1

[3] = in vivo; cited from earlier work
[4] = cited from earlier work
HSV-1 [5] = conditions: HSV-1-infected cell cultures; cited from earlier work
HSV = assay: murine HSV skin infection model; assay type: in vivo; conditions: oral doses of 5 mg/kg or higher once daily for four days; data not shown
Protocol: To assess the pharmacokinetic/pharmacodynamic profile the effective dose of the specific free base of N-[5-(aminosulfonyl)-4-methyl-1,3-thiazol-2-yl]-N-methyl-2-[4-(2-pyridinyl)phenyl]-acetamide was validated in a murine HSV skin infection model and associated plasma concentrations were determined (data not shown).
(§2) In healthy male volunteers these plasma concentrations were covered by a single dose of 40 mg as free base equivalent to the crystalline mono mesylate monohydrate salt of N-[5-(aminosulfonyl)-4-methyl-1,3-thiazol-2-yl]-N-methyl-2-[4-(2-pyridinyl)phenyl]-acetamide (see FIG. 4) and at steady state by daily doses of 25 mg as free base equivalent (see FIG. 5) for 21 days.

[6] = safety and tolerability in single and multiple dose phase I trials; assay type: in vivo, human; conditions: healthy male volunteers, single dose and daily doses for 21 days
Protocol: The results were compared with the effective concentration of the free base of N-[5-(aminosulfonyl)-4-methyl-1,3-thiazol-2-yl]-N-methyl-2-[4-(2-pyridinyl)phenyl]acetamide in cell culture and correlated to exposures reached in healthy male volunteers in single and multiple dose phase I trials (see FIGS. 4-7).
as §2

[7] = absolute bioavailability after oral administration; conditions: in vivo; oral administration of the mono mesylate monohydrate salt in a composition of the invention; human; read-out: absolute bioavailability of the free base
From the text: In yet another aspect of the invention said absolute bioavailability of 70%±30% of the resultant free base form of N-[5-(aminosulfonyl)-4-methyl-1,3-thiazol-2-yl]-N-methyl-2-[4-(2-pyridinyl)-phenyl]acetamide is achieved in a human.
In the context of the present invention the term “bioavailability” denotes a subcategory of absorption. Bioavailability denotes the fraction of an administered oral dose of the crystalline N-[5-(aminosulfonyl)-4-methyl-1,3-thiazol-2-yl]-N-methyl-2-[4-(2-pyridinyl)-phenyl]acetamide mono methanesulfonic acid monohydrate of the invention that reaches the systemic circulation of a subject as the resultant free base form of N-[5-(aminosulfonyl)-4-methyl-1,3-thiazol-2-yl]-N-methyl-2-[4-(2-pyridinyl)-phenyl]acetamide. By definition, when a medication is administered intravenously, its bioavailability is 100%. However, when a medication is administered via other routes (such as orally), its bioavailability generally decreases (due to incomplete absorption and first-pass metabolism) or may vary from individual to individual. Bioavailability is one of the essential tools in pharmacokinetics, as bioavailability must be considered when calculating dosages for non-intravenous routes of administration.

[8] = higher concentrations 0.25, 2.5, 25 μM

Row | SMILES | cluster size of HSV-1 infected cells (HSV-1 protein staining) (HSV-1 [1]; 0.025 μM) | staining for Aβ (HSV-1 [1]) | staining for P-tau (HSV-1 [1]) | cluster size of HSV-1 infected cells (HSV-1 protein staining) (HSV-1 [1]; [8]) | cluster size of HSV-1 infected cells (HSV-1 protein staining) (HSV-1 [2]; 0.025 μM) | staining for Aβ (HSV-1 [2]) | staining for P-tau (HSV-1 [2]) | cluster size of HSV-1 infected cells (HSV-1 protein staining) (HSV-1 [2]; [8]) | oral bioavailability [3] | water solubility [4] | HSV-1 induced accumulation of Aβ and P-tau (HSV-1 [5]) | antibody staining to HSV-1 proteins, Aβ and P-tau (HSV-1 [1]) | antibody staining to HSV-1 proteins, Aβ and P-tau (HSV-1 [2]) | suppression of murine HSV skin infection (HSV) | safety and tolerability [6] | bioavailability [7] [%]
1 | Nc1nc2c(ncn2COCCO)c(=O)[nH]1 [ACV, acyclovir, reference compound] | little effect on cluster sizes | still visible at higher concentrations of ACV | still visible at higher concentrations of ACV | reduced their sizes but less so than did the treatment with equimolar exemplary compound according to Formula (I) | little effect on cluster sizes | still visible at higher concentrations of ACV | still visible at higher concentrations of ACV | reduced their sizes but less so than did the treatment with equimolar exemplary compound according to Formula (I) | 15-30% | poorly water-soluble | reduced the virus-induced accumulation of Aβ and P-tau | – | – | – | – | –
2 | Cc1nc(N(C)C(=O)Cc2ccc(-c3ccccn3)cc2)sc1S(N)(=O)=O [N-[5-(aminosulfonyl)-4-methyl-1,3-thiazol-2-yl]-N-methyl-2-[4-(2-pyridinyl)phenyl]acetamid] | slightly smaller compared to control | reduced | reduced | clusters disappear and only occasionally infected cells could be detected | slightly smaller compared to control | reduced | reduced | clusters disappear and only occasionally infected cells could be detected | – | – | – | total or almost total removal of antibody staining | total or almost total removal of antibody staining | completely suppressed | safe and well tolerated up to the highest dose tested | 70
